The molecules below were run against T1, 11β-HSD1 (Homo sapiens, UniProt P28845) (assay: In vitro inhibition of 11β-HSD1, HTRF detection of cortisol generated from cortisone by human liver microsomes). Details: 11β-HSD IC50 (nM), 1 hour at 37° C., pH 6.0, NADPH 200 μM, cortisone 80 nM, inhibition relative to carbenoxolone signal.
T1 construct: detecting cortisol generated from cortisterone by human liver microsomes; from tissue; host or cells: human liver microsomes
Assay type: biochemical
In short: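 Inhibition expressed against the carbenoxolone signal and fitted to IC50 curves. Readout: HTRF competition between microsomal cortisol and XL665-labelled cortisol for Eu-cryptate anti-cortisol antibody (typically 2 h), with emission ratio 665/615 calibrated to cortisol concentration.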

T1 sequence (P28845 whole entry): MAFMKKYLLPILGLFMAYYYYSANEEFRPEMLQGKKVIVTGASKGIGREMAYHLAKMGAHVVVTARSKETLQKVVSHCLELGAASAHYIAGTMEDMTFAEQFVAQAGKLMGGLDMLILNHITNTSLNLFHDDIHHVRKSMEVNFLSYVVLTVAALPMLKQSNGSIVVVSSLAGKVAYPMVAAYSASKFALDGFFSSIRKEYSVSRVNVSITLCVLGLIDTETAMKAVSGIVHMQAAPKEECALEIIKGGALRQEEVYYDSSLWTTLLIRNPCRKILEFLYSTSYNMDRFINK

Point of comparison: COc1cccc2c1CC1N(C(=O)c3ccc4nc[nH]c4c3)CCC2C1(C)C (centres unmarked) [Example 146, (3H-Benzoimidazol-5-yl)-(10-methoxy-11,11-dimethyl-1,2,5,6-tetrahydro-4H-2,6-methano-benzo[d]azocin-3-yl)-methanone], IC50 384 nM. Against it:
- CNS(=O)(=O)c1ccc2c(c1)[C@]1(C)CCN(C(=O)c3ccc4nc[nH]c4c3)[C@H](C2)C1(C)C [Example 202, (2R,6S)-3-(3H-Benzoimidazole-5-carbonyl)-6,11,11-trimethyl-1,2,3,4,5,6-hexahydro-2,6-methano-benzo[d]azocine-8-sulfonic acid methylamide] — 5.8-fold lower, 66 nM
- CC1(C)[C@H]2Cc3c(O)cccc3[C@]1(C)CCN2C(=O)c1ccc2c(c1)NCC(=O)N2 [Example 44, 6-[(2R,6S)-10-Hydroxy-6,11,11-trimethyl-1,2,5,6-tetrahydro-4H-2,6-methano-benzo[d]azocine-3-carbonyl]-3,4-dihydro-1H-quinoxalin-2-one] — 1.9-fold lower, 200 nM
- Cc1nc(-c2ccc3c(c2)[C@]2(C)CCN(C(=O)c4ccc5nc[nH]c5c4)[C@H](C3)[C@H]2C)no1 [Example 231, (3H-Benzoimidazol-5-yl)-[(2R,6R,11S)-6,11-dimethyl-8-(5-methyl-[1,2,4]oxadiazol-3-yl)-1,2,5,6-tetrahydro-4H-2,6-methano-benzo[d]azocin-3-yl]-methanone] — 2.6-fold lower, 146 nM
- O=C(c1ccc2nc[nH]c2c1)N1CCC2(c3ccccc3)CC1Cc1ccc(O)cc12 (centres unmarked) [Example 149, (3H-Benzoimidazol-5-yl)-(8-hydroxy-6-phenyl-1,2,5,6-tetrahydro-4H-2,6-methano-benzo[d]azocin-3-yl)-methanone] — within 1.5-fold, 374 nM
- CC1(C)[C@H]2Cc3c(O)cccc3[C@]1(C)CCN2C(=O)c1ccc2[nH]ccc2c1 [Example 49, [(2R,6S)-10-Hydroxy-6,11,11-trimethyl-1,2,5,6-tetrahydro-4H-2,6-methano-benzo[d]azocin-3-yl]-(1H-indol-5-yl)-methanone] — 2.3-fold lower, 168 nM
- COc1cccc(C(=O)N2CC[C@@]3(C)c4cccc(O)c4C[C@@H]2C3(C)C)c1 [Example 11, [(2R,6S)-10-Hydroxy-6,11,11-trimethyl-1,2,5,6-tetrahydro-4H-2,6-methano-benzo[d]azocin-3-yl]-(3-methoxy-phenyl)-methanone] — within 1.5-fold, 530 nM
- CC1(C)[C@H]2Cc3c(O)cccc3[C@]1(C)CCN2C(=O)c1c[nH]c2ccccc12 [Example 118, [(2R,6S)-10-Hydroxy-6,11,11-trimethyl-1,2,5,6-tetrahydro-4H-2,6-methano-benzo[d]azocin-3-yl]-(1H-indol-3-yl)-methanone] — 5.3-fold lower, 72 nM
- COc1cc2c(cc1C)[C@]1(C)CCN(C(=O)c3ccc4nc[nH]c4c3)[C@H](C2)C1(C)C (stereo in doubt) [Example 63, (3H-Benzoimidazol-5-yl)-[(2R,6S)-9-methoxy-6,8,11,11-tetramethyl-1,2,5,6-tetrahydro-4H-2,6-methano-benzo[d]azocin-3-yl]-methanone] — 1.8-fold lower, 216 nM
- CC1(C)[C@H]2Cc3c(O)cccc3[C@]1(C)CCN2C(=O)c1ccc2nc[nH]c2c1 [Example 4, (3H-Benzoimidazol-5-yl)-[(2R,6S)-10-hydroxy-6,11,11-trimethyl-1,2,5,6-tetrahydro-4H-2,6-methano-benzo[d]azocin-3-yl]-methanone] — 6.9-fold lower, 56 nM
- CC1(C)[C@H]2Cc3c(O)cccc3[C@]1(C)CCN2C(=O)c1ccc(C(=O)N2CCCC2)cc1 [Example 133, [(2R,6S)-10-Hydroxy-6,11,11-trimethyl-1,2,5,6-tetrahydro-4H-2,6-methano-benzo[d]azocin-3-yl]-[4-(pyrrolidine-1-carbonyl)-phenyl]-methanone] — 2.5-fold higher, 941 nM
- C[C@@H]1[C@H]2Cc3ccc(-c4ccc(=O)n(C)c4)cc3[C@]1(C)CCN2C(=O)c1ccc2nc[nH]c2c1 [Example 289, 5-[(2R,6R,11S)-3-(3H-Benzoimidazole-5-carbonyl)-6,11-dimethyl-1,2,3,4,5,6-hexahydro-2,6-methano-benzo[d]azocin-8-yl]-1-methyl-1H-pyridin-2-one] — 3.2-fold lower, 121 nM
- Cn1cc(C(=O)N2CC[C@@]3(C)c4cccc(O)c4C[C@@H]2C3(C)C)c2ccccc21 [Example 199, [(2R,6S)-10-Hydroxy-6,11,11-trimethyl-1,2,5,6-tetrahydro-4H-2,6-methano-benzo[d]azocin-3-yl]-(1-methyl-1H-indol-3-yl)-methanone] — 2.8-fold lower, 137 nM
- Cc1ccc(-c2ccc3c(c2)[C@]2(C)CCN(C(=O)c4ccc5nc[nH]c5c4)[C@H](C3)[C@H]2C)nn1 [Example 263, (3H-Benzoimidazol-5-yl)-[(2R,6R,11S)-6,11-dimethyl-8-(6-methyl-pyridazin-3-yl)-1,2,5,6-tetrahydro-4H-2,6-methano-benzo[d]azocin-3-yl]-methanone] — 5.4-fold lower, 71 nM
- CC1(C)[C@H]2Cc3c(O)cccc3[C@]1(C)CCN2C(=O)c1ccc(C(=O)Nc2ccccc2)cc1 [Example 135, 4-[(2R,6S)-10-Hydroxy-6,11,11-trimethyl-1,2,5,6-tetrahydro-4H-2,6-methano-benzo[d]azocine-3-carbonyl]-N-phenyl-benzamide] — 9.2-fold higher, 3520 nM
- CC1(C)[C@H]2Cc3ccccc3[C@]1(C)CCN2C(=O)c1ccc2cn[nH]c2c1 [Example 285, (1H-Indazol-6-yl)-[(2R,6S)-6,11,11-trimethyl-1,2,5,6-tetrahydro-4H-2,6-methano-benzo[d]azocin-3-yl]-methanone] — 2.6-fold lower, 150 nM
- CC1(C)[C@H]2Cc3c(cccc3S(C)(=O)=O)[C@]1(C)CCN2C(=O)c1ccc2nc[nH]c2c1 [Example 234, (3H-Benzoimidazol-5-yl)-[(2R,6S)-10-methanesulfonyl-6,11,11-trimethyl-1,2,5,6-tetrahydro-4H-2,6-methano-benzo[d]azocin-3-yl)-methanone] — 8.1-fold higher, 3120 nM
- Cc1cccc2c1C[C@H]1N(C(=O)c3ccc4nc[nH]c4c3)CC[C@]2(C)C1(C)C [Example 139, (3H-Benzoimidazol-5-yl)-[(2R,6S)-6,10,11,11-tetramethyl-1,2,5,6-tetrahydro-4H-2,6-methano-benzo[d]azocin-3-yl]-methanone] — 4.2-fold lower, 92 nM
- C[C@@H]1[C@H]2Cc3ccc(-c4ccn(C)c(=O)c4)cc3[C@]1(C)CCN2C(=O)c1ccc2nc[nH]c2c1 [Example 279, (3H-Benzoimidazol-5-yl)-[(2R,6R,11S)-6,11-dimethyl-8-(1-methyl-2-oxo-1,2-dihydro-pyridin-4-yl)-1,2,5,6-tetrahydro-4H-2,6-methano-benzo[d]azocin-3-yl]-methanone] — 7.4-fold lower, 52 nM
- CC12CCN(C(=O)c3ccc4nc[nH]c4c3)C(Cc3cccc(O)c31)C2(C)C (centres unmarked) [Example 78, (3H-Benzoimidazol-5-yl)-(7-hydroxy-6,11,11-trimethyl-1,2,5,6-tetrahydro-4H-2,6-methano-benzo[d]azocin-3-yl)-methanone] — 5.7-fold lower, 67 nM
- CC1(C)[C@H]2Cc3ccccc3[C@]1(C)CCN2C(=O)c1cc(F)c(O)c(F)c1 [Example 335, (3,5-Difluoro-4-hydroxy-phenyl)-[(2R,6S)-6,11,11-trimethyl-1,2,5,6-tetrahydro-4H-2,6-methano-benzo[d]azocin-3-yl]-methanone] — 3.3-fold lower, 115 nM
- C[C@H]1[C@H]2Cc3ccccc3[C@]1(C)CCN2C(=O)c1ccc2nc[nH]c2c1 (racemic) [Example 77, (3H-Benzoimidazol-5-yl)-(6,11-dimethyl-1,2,5,6-tetrahydro-4H-2,6-methano-benzo[d]azocin-3-yl)-methanone] — 2.7-fold lower, 144 nM
- Cc1nnc(-c2ccc3c(c2)[C@]2(C)CCN(C(=O)c4ccc5nc[nH]c5c4)[C@H](C3)[C@H]2C)n1C [Example 336, (3H-Benzoimidazol-5-yl)-[(2R,6R,11S)-8-(4,5-dimethyl-4H-[1,2,4]triazol-3-yl)-6,11-dimethyl-1,2,5,6-tetrahydro-4H-2,6-methano-benzo[d]azocin-3-yl]-methanone] — 1.9-fold lower, 198 nM
- CC1(C)[C@H]2Cc3c(O)cccc3[C@]1(C)CCN2C(=O)c1ccc2scnc2c1 [Example 45, Benzothiazol-5-yl-[(2R,6S)-10-hydroxy-6,11,11-trimethyl-1,2,5,6-tetrahydro-4H-2,6-methano-benzo[d]azocin-3-yl]-methanone] — the same, 384 nM
- CC1(C)[C@H]2Cc3ccccc3[C@]1(C)CCN2C(=O)c1ccc(O)nc1 [Example 303, (6-Hydroxy-pyridin-3-yl)-[(2R,6S)-6,11,11-trimethyl-1,2,5,6-tetrahydro-4H-2,6-methano-benzo[d]azocin-3-yl)-methanone] — 1.9-fold higher, 717 nM
- CC(=O)NCc1ccc2c(c1)CC1N(C(=O)c3ccc4nc[nH]c4c3)CCC2(C)C1(C)C (centres unmarked) [Example 178, N-[3-(3H-Benzoimidazole-5-carbonyl)-6,11,11-trimethyl-1,2,3,4,5,6-hexahydro-2,6-methano-benzo[d]azocin-9-ylmethyl]-acetamide] — 2.4-fold lower, 159 nM
- COc1cc2c(cc1C)C[C@@H]1N(C(=O)c3ccc4nc[nH]c4c3)CC[C@@]2(C)C1(C)C (stereo in doubt) [Example 61, (3H-Benzoimidazol-5-yl)-[(2S,6R)-8-methoxy-6,9,11,11-tetramethyl-1,2,5,6-tetrahydro-4H-2,6-methano-benzo[d]azocin-3-yl]-methanone] — 2.1-fold higher, 798 nM
- COC(=O)c1ccc2c(c1)[C@]1(C)CCN(C(=O)c3ccc4nc[nH]c4c3)[C@H](C2)[C@H]1C [Example 341, (2R,6R,11S)-3-(3H-Benzoimidazole-5-carbonyl)-6,11-dimethyl-1,2,3,4,5,6-hexahydro-2,6-methano-benzo[d]azocine-8-carboxylic acid methyl ester] — 1.6-fold higher, 601 nM
- COc1cc(C(=O)N2CC[C@@]3(C)c4cccc(O)c4C[C@@H]2C3(C)C)ccc1CN1CCCC1=O [Example 122, 1-{4-[(2R,6S)-10-Hydroxy-6,11,11-trimethyl-1,2,5,6-tetrahydro-4H-2,6-methano-benzo[d]azocine-3-carbonyl]-2-methoxy-benzyl}-pyrrolidin-2-one] — 2.1-fold higher, 818 nM
